Tested on: NOMO1
Experiment: cell viability relative to DMSO control; higher = less cytotoxic
Conditions: 48 h
Method in brief: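 Cells were incubated for 48 h at 37°C before CellTiter-Glo One luminescence was read. The cells were NOMO1 or SEM (500 cells/well) or P12-Ichikawa (1000 cells/well) leukemia cells, adapted for at least four passages in each medium and seeded in 1536-well plates (5 μl). Dosing used library compounds in DMSO applied by pin over 11 threefold points, 47 μM to 0.79 nM. Viability is the per-plate percentage of DMSO wells, with cell-free wells as background.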

[1] = HPLM + 10% dialyzed FBS, 0.000781 µM
[2] = HPLM + 10% dialyzed FBS, 0.00234 µM
[3] = HPLM + 10% dialyzed FBS, 0.00702 µM
[4] = HPLM + 10% dialyzed FBS, 0.0211 µM
[5] = HPLM + 10% dialyzed FBS, 0.0632 µM
[6] = HPLM + 10% dialyzed FBS, 0.19 µM
[7] = HPLM + 10% dialyzed FBS, 0.569 µM
[8] = HPLM + 10% dialyzed FBS, 1.71 µM
[9] = HPLM + 10% dialyzed FBS, 5.12 µM
[10] = HPLM + 10% dialyzed FBS, 15.4 µM
[11] = HPLM + 10% dialyzed FBS, 46.1 µM
[12] = RPMI 5 mM glucose + 10% FBS, 0.000781 µM
[13] = RPMI 5 mM glucose + 10% FBS, 0.00234 µM
[14] = RPMI 5 mM glucose + 10% FBS, 0.00702 µM
[15] = RPMI 5 mM glucose + 10% FBS, 0.0211 µM
[16] = RPMI 5 mM glucose + 10% FBS, 0.0632 µM
[17] = RPMI 5 mM glucose + 10% FBS, 0.19 µM
[18] = RPMI 5 mM glucose + 10% FBS, 0.569 µM
[19] = RPMI 5 mM glucose + 10% FBS, 1.71 µM
[20] = RPMI 5 mM glucose + 10% FBS, 5.12 µM
[21] = RPMI 5 mM glucose + 10% FBS, 15.4 µM
[22] = RPMI 5 mM glucose + 10% FBS, 46.1 µM
[23] = RPMI 5 mM glucose + 10% dialyzed FBS, 0.000781 µM
[24] = RPMI 5 mM glucose + 10% dialyzed FBS, 0.00234 µM
[25] = RPMI 5 mM glucose + 10% dialyzed FBS, 0.00702 µM
[26] = RPMI 5 mM glucose + 10% dialyzed FBS, 0.0211 µM
[27] = RPMI 5 mM glucose + 10% dialyzed FBS, 0.0632 µM
[28] = RPMI 5 mM glucose + 10% dialyzed FBS, 0.19 µM
[29] = RPMI 5 mM glucose + 10% dialyzed FBS, 0.569 µM
[30] = RPMI 5 mM glucose + 10% dialyzed FBS, 1.71 µM
[31] = RPMI 5 mM glucose + 10% dialyzed FBS, 5.12 µM
[32] = RPMI 5 mM glucose + 10% dialyzed FBS, 15.4 µM
[33] = RPMI 5 mM glucose + 10% dialyzed FBS, 46.1 µM

SMILES | cell viability [1] [%] | cell viability [2] [%] | cell viability [3] [%] | cell viability [4] [%] | cell viability [5] [%] | cell viability [6] [%] | cell viability [7] [%] | cell viability [8] [%] | cell viability [9] [%] | cell viability [10] [%] | cell viability [11] [%] | cell viability [12] [%] | cell viability [13] [%] | cell viability [14] [%] | cell viability [15] [%] | cell viability [16] [%] | cell viability [17] [%] | cell viability [18] [%] | cell viability [19] [%] | cell viability [20] [%] | cell viability [21] [%] | cell viability [22] [%] | cell viability [23] [%] | cell viability [24] [%] | cell viability [25] [%] | cell viability [26] [%] | cell viability [27] [%] | cell viability [28] [%] | cell viability [29] [%] | cell viability [30] [%] | cell viability [31] [%] | cell viability [32] [%] | cell viability [33] [%]
CCCCC(C=O)NC(=O)C(CC(C)C)NC(=O)OCc1ccccc1 (stereo unspecified) | 104 | 98.5 | 86.4 | 94.7 | 85.5 | 83 | 92.2 | 82.7 | 89.4 | 82 | 55.9 | 91.8 | 93.3 | 90.1 | 102 | 93.7 | 88.9 | 85.4 | 72.7 | 80.2 | 68.6 | 77.6 | 103 | 93.3 | 95.1 | 97.4 | 101 | 83.9 | 90.4 | 82.2 | 77.6 | 80.9 | 70.1
COC/1=C/C=C2\C(=C/C1=O)[C@H](CCC3=CC(=C(OC)C(=C23)OC)OC)NC(C)=O | 36.2 | 33.8 | 45.9 | 49.8 | 40.4 | 27 | 30.5 | 25.3 | 19.8 | 20 | 10.6 | 23.7 | 20 | 17.1 | 20.2 | 21.5 | 24.3 | 17.9 | 7.99 | 12.5 | 10.8 | 2.76 | 23.7 | 21.5 | 23.3 | 29.1 | 24.9 | 21.3 | 23.5 | 13.1 | 14.3 | 12.8 | 3.31
O=C1Nc2ccc(I)cc2/C1=C/c1cc(Br)c(O)c(Br)c1 | 111 | 96.5 | 109 | 106 | 109 | 111 | 98.6 | 99.9 | 118 | 101 | 78.9 | 86.6 | 98.1 | 96.5 | 102 | 96.2 | 100 | 96.8 | 97.6 | 102 | 88.6 | 83 | 95.4 | 93.3 | 90.9 | 92.8 | 92 | 85.9 | 104 | 96.8 | 101 | 95.3 | 76.6
O=C\1N(N\C=C1[N]2C=CN=N2)C3=NC=NC(=C3)N4CCOCC4 | 81.9 | 84.5 | 82 | 83.9 | 25.7 | 25.8 | 26.3 | 23.8 | 28.3 | 28.4 | 26.6 | 71.2 | 83.9 | 82.7 | 87.8 | 71 | 16.8 | 12.8 | 14.9 | 15.6 | 14.2 | 16.5 | 70.9 | 79.4 | 81.5 | 88.9 | 72.9 | 29.9 | 14.4 | 19.6 | 18.6 | 19.4 | 18.8
Oc1cccc(-c2nc(N3CCOCC3)c3oc4ncccc4c3n2)c1 | 121 | 92.1 | 117 | 91.8 | 92.3 | 107 | 115 | 102 | 129 | 96.4 | 103 | 109 | 113 | 116 | 123 | 112 | 108 | 104 | 87.4 | 128 | 124 | 122 | 120 | 106 | 125 | 98.9 | 110 | 102 | 80.4 | 77.7 | 109 | 106 | 126
c1ccc(CNc2nc(N3CCOc4ccccc43)nc3c2CCCC3)cc1 | 78.1 | 97.2 | 110 | 103 | 110 | 93.4 | 103 | 111 | 107 | 100 | 97.8 | 100 | 97.7 | 109 | 94.9 | 99.9 | 106 | 106 | 107 | 106 | 110 | 90.2 | 102 | 103 | 112 | 105 | 112 | 111 | 114 | 109 | 109 | 97.6 | 98.8
CC/1=C(/C(CC(=O)N1)C2=CC=C(C=C2)C(F)(F)F)C(=O)NC3=C(F)C=C4[NH]N=CC4=C3 (stereo unspecified) | 94.2 | 94.5 | 103 | 108 | 104 | 100 | 105 | 98.6 | 96.1 | 33.6 | 11.5 | 92 | 92.7 | 85.7 | 81.2 | 89.6 | 86 | 86.9 | 82.4 | 84.2 | 66.7 | 23.9 | 91.7 | 89.1 | 104 | 96.1 | 95 | 84.7 | 97.5 | 95.3 | 92.1 | 58 | 28

Source: the supplement of paper PMC11451515
